# Experiments:
# venous thrombosis = venous thrombosis test in rats (venous stasis under hypercoagulation with factor Xa, Wessler technique), activity via the oral route; type: in vivo, rat; conditions: male Wistar rats, dose 6 mg/kg, thrombosis induced 2 h after administration
# Procedure: The antithrombotic activity of the compounds according to the invention was studied in vivo in rats by virtue of a test in which a venous thrombosis is reproduced. The venous thrombosis was induced according to the protocol described in Thromb. Haemost., 1992, 67(1), 176-179. The activity via the oral route was studied according to the procedure described below. The experiment is carried out on non-fasting male Wistar rats weighing from 250 to 280 g and divided into groups of 10 animals each. The test products are administered orally (intubation) in solution or in suspension in a methylcellulose solution (0.5% in water). The concentrations of the compounds are calculated so as to bring about the absorption of an amount of solution of 10 ml/kg orally. A thrombosis is induced at time T after the administration of the product and the thrombus formed is removed and weighed. In order to induce this thrombosis, a venous stasis is brought about under hypercoagulation, according to the technique described by Wessler (J. Applied Physiol., 1959, 943-946), using a solution of activated factor X (Xa), supplied by Biogenic (Montpellier) and comprising a dose of 7.5 nKat/kg, as hypercoagulant. The venous stasis is brought about 10 seconds exactly after the injection of the hypercoagulant. The activity of the test compounds was monitored at various doses, after they had been administered. The thrombosis was induced 2 hours after the administration of the compound. By way of example, the results of the above tests are given in the following table for a few compounds according to the invention (the activity is expressed by the percentage of inhibition of the formation of the thrombus, observed in the presence of the compound according to the invention, with respect to the weight of the thrombus formed in the absence of the compound).
Compound,melting point [°C],Activity (percentage of inhibition of the formation of the thrombus) (venous thrombosis) [%]
"O[C@@H]1[C@@H](O)[C@H](Oc2ccccc2-c2cccnc2)SC[C@H]1O [Example 18, 2-(3-Pyridinyl)phenyl 5-thio-β-D-xylopyranoside]",195,–
"O[C@@H]1[C@@H](O)[C@H](Oc2cccc(-c3ccccn3)c2)SC[C@H]1O [Example 12, 3-(2-Pyridinyl)phenyl 5-thio-β-D-xylopyranoside]",138 to 139,88
"O[C@@H]1[C@@H](O)[C@H](Oc2ccc(-c3ccncc3)cc2)SC[C@H]1O [Example 8, 4-(4-Pyridinyl)phenyl-5-thio-β-D-xylopyranoside]",–,91
"O[C@@H]1[C@@H](O)[C@H](Oc2cccc(-c3cccnc3)c2)SC[C@H]1O [Example 22, 3-(3-Pyridinyl)phenyl 5-thio-β-D-xylopyranoside]",197,81
"O[C@@H]1[C@@H](O)[C@H](Oc2ccc(-c3cccnc3)cc2F)SC[C@H]1O [Example 24, 2-Fluoro-4-(3-pyridinyl)phenyl 5-thio-β-D-xylopyranoside]",207,–
"Cc1ccc(-c2cccc(O[C@@H]3SC[C@@H](O)[C@H](O)[C@H]3O)c2)cn1 [Example 29, 3-(6-Methyl-3-pyridinyl)phenyl 5-thio-β-D-xylopyranoside]",177,–
"O[C@@H]1[C@@H](O)[C@H](Oc2cc(F)ccc2-c2ccncc2)SC[C@H]1O [Example 28, 5-Fluoro-2-(4-pyridinyl)phenyl 5-thio-β-D-xylopyranoside]",–,71
"O[C@@H]1[C@@H](O)[C@H](Oc2ccccc2-c2ccncc2)SC[C@H]1O [Example 16, 2-(4-Pyridinyl)phenyl 5-thio-β-D-xylopyranoside]",134,–
"COc1ncccc1-c1cccc(O[C@@H]2SC[C@@H](O)[C@H](O)[C@H]2O)c1 [Example 33, 3-(2-Methoxy-3-pyridinyl)phenyl 5-thio-β-D-xylopyranoside]",194,–
"O[C@@H]1[C@@H](O)[C@H](Oc2ccc(-c3ccccn3)cc2)SC[C@H]1O [Example 10, 4-(2-Pyridinyl)phenyl 5-thio-β-D-xylopyranoside]",197,86
"O[C@@H]1[C@@H](O)[C@H](Oc2ccc(-c3cccnc3)cc2)SC[C@H]1O [Example 6, 4-(3-Pyridinyl)phenyl 5-thio-β-D-xylopyranoside]",166,–

# Source: patent US8013010B2, “5-thioxylopyranose compounds” (Laboratoires Fournier S.A., priority 2006, dated 2011)
